One block for each compound: values may come before it.
Test system: P. falciparum (NF54 or 3D7 strain) in infected human erythrocytes
Test: Assay for P. falciparum proliferation in infected human blood cells (SYBR Green)
Assay type: cell-based
Details: Plasmodium falciparum, Erythrocyte; NF54 or 3D7 strain, 72 hours, SYBR Green fluorescence; read-out: EC50 (nM), inhibitory efficacy in delaying P. falciparum proliferation in infected human blood cells
Experimental: Assay for P. falciparum Proliferation in Infected Human Blood Cells
Compounds of the invention can be assayed to measure their capacity to inhibit proliferation of P. falciparum parasitemia in infected red blood cells. This parasite proliferation assay measures the increase in parasite DNA content using a DNA intercalating dye, SYBR Green® (INVITROGEN®) which has a high affinity for double stranded DNA.
NF54 or 3D7 P. falciparum strain is grown in complete culturing media until parasitemia reaches 3% to 8% with O+ human erythrocytes. […] 20 μl of screening media is dispensed into 384 well assay plates. 50 nl of compounds of the invention (in DMSO), including antimalarial controls (mefloquine, pyrimethamine and artemisinin), are then transferred into the assay plates, as well as DMSO alone to serve as a negative control for inhibition. Then 30 μl of a suspension of a NF54 or 3D7 P. falciparum infected erythrocytes in screening media is dispensed into the assay plates such that the final hematocrit is 2.5% with a final parasitemia of 0.3%. The plates are placed in a 37° C. incubator for 72 hours in a low oxygen environment containing 93% N2, 4% CO2, and 3% O2 gas mixture. 10 μl of lysis buffer (saponin, triton-X, EDTA) containing a 10× solution of SYBR Green I® in RPMI media is dispensed into the plates. The plates are lidded and kept at room temperature overnight for the lysis of the infected red blood cells. The fluorescence intensity is measured (excitation […], emission 530 nm) using the Envision™ system (Perkin Elmer). The percentage inhibition of 50%, […], is calculated for each compound.

Structure (SMILES): Cc1ccc(-c2cnn3ccc(C(=O)N(C)c4ccc(C#N)cn4)cc23)nc1 [Example 59, N-(5-cyanopyridin-2-yl)-N-methyl-3-(5-methylpyridin-2-yl)pyrazolo[1,5-a]pyridine-5-carboxamide]
EC50: 228 nM

Structure (SMILES): COc1ccc(-c2cnn3ccc(C(=O)N(C)c4ccc(C#N)cn4)cc23)nc1 [Example 60, N-(5-cyanopyridin-2-yl)-3-(5-methoxypyridin-2-yl)-N-methylpyrazolo[1,5-a]pyridine-5-carboxamide]
EC50: 683 nM

Structure (SMILES): CN(C(=O)c1ccn2ncc(-c3ccc(C(N)=O)cn3)c2c1)c1ccc(C#N)cn1 [Example 61, 3-(5-carbamoylpyridin-2-yl)-N-(5-cyanopyridin-2-yl)-N-methylpyrazolo[1,5-a]pyridine-5-carboxamide]
EC50: 20 nM

Structure (SMILES): Cc1ccc(N(C)C(=O)c2ccn3ncc(-c4ccc(C(N)=O)cc4)c3c2)nc1 [Example 63, 3-(4-carbamoylphenyl)-N-methyl-N-(5-methylpyridin-2-yl)pyrazolo[1,5-a]pyridine-5-carboxamide]
EC50: 6 nM

Structure (SMILES): CNC(=O)c1ccc(-c2cnn3ccc(C(=O)N(C)c4ccc(F)cc4)cc23)cc1 [Example 64, N-(4-fluorophenyl)-N-methyl-3-(4-(methylcarbamoyl)phenyl)pyrazolo[1,5-a]pyridine-5-carboxamide]
EC50: 20 nM

Structure (SMILES): Cc1ccc(N(C)C(C)c2ccn3ncc(-c4ccc(C(N)=O)cc4)c3c2)nc1 (centres unmarked) [Example 65, 4-(5-(1-(methyl(5-methylpyridin-2-yl)amino)ethyl)pyrazolo[1,5-a]pyridin-3-yl)benzamide]
EC50: 504 nM

Structure (SMILES): CC(c1ccn2ncc(-c3ccc(C(N)=O)cc3)c2c1)N1C(=O)COc2cc(F)ccc21 (centres unmarked) [Example 66, 4-(5-(1-(7-fluoro-3-oxo-2H-benzo[b][1,4]oxazin-4(3H)-yl)ethyl)pyrazolo[1,5-a]pyridin-3-yl)benzamide]
EC50: 49 nM

Structure (SMILES): CC(=O)Nc1ccc(-c2cnn3ccc(C(C)N(C)c4ccc(C)cn4)cc23)cc1 (centres unmarked) [Example 68, N-(4-(5-(1-(methyl(5-methylpyridin-2-yl)amino)ethyl)pyrazolo[1,5-a]pyridin-3-yl)phenyl)acetamide]
EC50: 6750 nM

Structure (SMILES): CC(=O)Nc1ccc(-c2cnn3ccc(C(=O)N(C)c4ccc(C#N)cn4)cc23)cc1 [Example 69, 3-(4-acetamidophenyl)-N-(5-cyanopyridin-2-yl)-N-methylpyrazolo[1,5-a]pyridine-5-carboxamide]
EC50: 13 nM

Structure (SMILES): NC(=O)c1ccc(-c2cnn3ccc(C(=O)N4CCOc5cc(F)ccc54)cc23)cc1 [Example 71, 4-(5-(7-fluoro-3,4-dihydro-2H-benzo[b][1,4]oxazine-4-carbonyl)pyrazolo[1,5-a]pyridin-3-yl)benzamide]
EC50: 3 nM

Structure (SMILES): CC1COc2cc(F)ccc2N1C(=O)c1ccn2ncc(-c3ccc(C(N)=O)cc3)c2c1 (centres unmarked) [Example 72, 4-(5-(7-fluoro-3-methyl-3,4-dihydro-2H-benzo[b][1,4]oxazine-4-carbonyl)pyrazolo[1,5-a]pyridin-3-yl)benzamide]
EC50: 5 nM

Structure (SMILES): CNC(=O)c1ccc(-c2cnn3ccc(C(=O)N4CCOc5cc(F)ccc54)cc23)cc1 [Example 73, 4-(5-(7-fluoro-3,4-dihydro-2H-benzo[b][1,4]oxazine-4-carbonyl)pyrazolo[1,5-a]pyridin-3-yl)-N-methylbenzamide]
EC50: > 10000 nM

Structure (SMILES): CNC(=O)c1ccc(-c2cnn3ccc(C(=O)N4c5ccc(F)cc5OCC4C)cc23)cc1 (centres unmarked) [Example 74, 4-(5-(7-fluoro-3-methyl-3,4-dihydro-2H-benzo[b][1,4]oxazine-4-carbonyl)pyrazolo[1,5-a]pyridin-3-yl)-N-methylbenzamide]
EC50: 52 nM

Results, then the compound that gave them:

EC50: 82 nM
Structure (SMILES): CNC(=O)c1ccc(-c2cnn3ccc(C(=O)N(c4ccc(C#N)cn4)C4COC4)cc23)cc1 [Example 76, N-(5-cyanopyridin-2-yl)-3-(4-(methylcarbamoyl)phenyl)-N-(oxetan-3-yl)pyrazolo[1,5-a]pyridine-5-carboxamide]

EC50: 146 nM
Structure (SMILES): CC(Cn1cccn1)N(C(=O)c1ccn2ncc(-c3ccc(C(N)=O)cc3)c2c1)c1ccc(C#N)cn1 (centres unmarked) [Example 77, N-(1-(1H-pyrazol-1-yl)propan-2-yl)-3-(4-carbamoylphenyl)-N-(5-cyanopyridin-2-yl)pyrazolo[1,5-a]pyridine-5-carboxamide]

EC50: 7 nM
Structure (SMILES): CN(C(=O)c1ccn2ncc(-c3cnc(N)c(F)c3)c2c1)c1ccc(C#N)cc1 [Example 79, 3-(6-amino-5-fluoropyridin-3-yl)-N-(4-cyanophenyl)-N-methylpyrazolo[1,5-a]pyridine-5-carboxamide]

EC50: 824 nM
Structure (SMILES): Cc1cc(-c2cnn3ccc(C(=O)N(C)c4ccc(C#N)cc4)cc23)cc(C)c1N [Example 80, 3-(4-amino-3,5-dimethylphenyl)-N-(4-cyanophenyl)-N-methylpyrazolo[1,5-a]pyridine-5-carboxamide]

EC50: 36 nM
Structure (SMILES): Cc1cc(-c2cnn3ccc(C(=O)N(C)c4ccc(C#N)cc4)cc23)cnc1N [Example 81, 3-(6-amino-5-methylpyridin-3-yl)-N-(4-cyanophenyl)-N-methylpyrazolo[1,5-a]pyridine-5-carboxamide]

EC50: 1160 nM
Structure (SMILES): CN(C(=O)c1ccn2ncc(-c3ccc(C(N)=O)cc3)c2c1)C1CCC(C#N)CC1 (centres unmarked) [Example 82, 3-(4-carbamoylphenyl)-N-(4-cyanocyclohexyl)-N-methylpyrazolo[1,5-a]pyridine-5-carboxamide]

EC50: 4 nM
Structure (SMILES): CN(C(=O)c1ccn2ncc(-c3cnc(N)nc3)c2c1)c1ccc(C#N)cc1 [Example 83, 3-(2-aminopyrimidin-5-yl)-N-(4-cyanophenyl)-N-methylpyrazolo[1,5-a]pyridine-5-carboxamide]

EC50: 6 nM
Structure (SMILES): CN(C(=O)c1ccn2ncc(-c3cnc(N)c(C(F)(F)F)c3)c2c1)c1ccc(C#N)cn1 [Example 84, 3-(6-amino-5-(trifluoromethyl)pyridin-3-yl)-N-(5-cyanopyridin-2-yl)-N-methylpyrazolo[1,5-a]pyridine-5-carboxamide]

EC50: 16 nM
Structure (SMILES): CN(C(=O)c1ccn2ncc(-c3cnc(N)c(C#N)c3)c2c1)c1ccc(C#N)cn1 [Example 85, 3-(6-amino-5-cyanopyridin-3-yl)-N-(5-cyanopyridin-2-yl)-N-methylpyrazolo[1,5-a]pyridine-5-carboxamide]

EC50: 10 nM
Structure (SMILES): CN(C(=O)c1ccn2ncc(-c3cnc(N)c(Cl)c3)c2c1)c1ccc(C#N)cn1 [Example 86, 3-(6-amino-5-chloropyridin-3-yl)-N-(5-cyanopyridin-2-yl)-N-methylpyrazolo[1,5-a]pyridine-5-carboxamide]

EC50: 41 nM
Structure (SMILES): CN(C)C(=O)c1cc(-c2cnn3ccc(C(=O)N(C)c4ccc(C#N)cn4)cc23)cnc1N [Example 87, 3-(6-amino-5-(dimethylcarbamoyl)pyridin-3-yl)-N-(5-cyanopyridin-2-yl)-N-methylpyrazolo[1,5-a]pyridine-5-carboxamide]

EC50: 83 nM
Structure (SMILES): COc1cc(-c2cnn3ccc(C(=O)N(C)c4ccc(C#N)cn4)cc23)cnc1N [Example 88, 3-(6-amino-5-methoxypyridin-3-yl)-N-(5-cyanopyridin-2-yl)-N-methylpyrazolo[1,5-a]pyridine-5-carboxamide]

EC50: 6 nM
Structure (SMILES): CN(C(=O)c1ccn2ncc(-c3ccc(C(N)=O)cc3)c2c1)c1ccc(Cl)cc1C=O [Example 89, 3-(4-carbamoylphenyl)-N-(4-chloro-2-formylphenyl)-N-methylpyrazolo[1,5-a]pyridine-5-carboxamide]

— patent US8871754B2, “Compounds and compositions for the treatment of parasitic diseases” (IRM LLC, priority 2012, dated 2014)
